Test results from paper PMC9738632 (Molecules, 2022).
Values after ≈ are worked out from the molar mass of the structure shown. Read-outs that look alike come from different tables or passages of the source.

Legend:
DENV-4: SLMC318 = experiment: Plaque reduction neutralization test (PRNT), DENV-4; format: cell-based, Dengue virus; details: DENV-4, BHK-21 cells
Text: (§1) The dengue viruses used in this study were DENV-1:VN/2017/D7709, DENV-2: 00St22A, DENV-3: SMLC50, DENV-4: SLMC318. The virus strains were supplied by the Vietnam National Institute of Hygiene and Epidemiology. The four above serotypes of the Dengue virus were propagated in BHK-21 cell lines (provided by Nagasaki University, Japan) in Eagle’s Minimum Essential Medium (EMEM; Gibco Thermo Fischer Scientific, Waltham, MA, USA) with 2% Fetal Bovine Serum (FBS; Sigma Aldrich, St. Louis, MO, USA) at 37 °C under 5% CO2 atmosphere for 5–7 days. The BHK-21 cells were cultured using 10% FBS EMEM medium.
(§2) EMEM (1 mL) containing FBS (2%) was added into each of 24-well plates (with a concentration of […] –1.0 × 10^4 cells/well). The well plates were shaken to induce the formation of identical cell layers. Afterwards, the wells were incubated at 37 °C under 5% CO2 atmosphere overnight until the cell concentration reached at 70–90%. In case this concentration was not yet reached, the incubation was allowed to continue for a further 1 to 2 days.
(§3) The compounds 4–8 and 23 were totally dissolved in EMEM with a concentration of 500 μg/mL, which was serially diluted with step 2 with EMEM containing 2% FBS; the solutions of compounds were kept at 2–8 °C. The viruses were used at the dose of 2.5 × 10^3 PFU/mL in EMEM containing 2% FBS. The virus (100 μL) was added to all the diluted samples. The virus-compounds mixtures were incubated at 37 °C under 5% CO2 atmosphere for 60 min; afterwards, the medium in all wells of the plates was removed. The virus-compounds mixture (50 μL) was added into the wells, according to the designed experimental test concentration/dilution.
(§4) The viral medium was used as the negative control. EMEM (2 mL) containing methyl cellulose (1%) was added and re-incubated at 37 °C under 5% CO2 atmosphere for 4–6 days. The typical DENV-1 and DENV-4-induced CPE appeared after 4 days of incubation, while the durations for DENV-2 and DENV-3 were 5 and 6 days, respectively. These times of incubation allowed the formation of the plaques to be visually observable and countable. The plaques can be observed under a microscope or by eyes. The cells were fixed with formalin (3.7%) for 1 h at room temperature, washed with water, and stained with crystal violet (0.25%) for 1 h at room temperature. Finally, the plaques were counted.

DENV-2: 00St22A = experiment: Plaque reduction neutralization test (PRNT), DENV-2; format: cell-based, Dengue virus; details: DENV-2, BHK-21 cells
Text: as §1, §2, §3, §4

DENV-1:VN/2017/D7709 = experiment: Plaque reduction neutralization test (PRNT), DENV-1; format: cell-based, Dengue virus; details: DENV-1, BHK-21 cells
Text: as §1, §2, §3, §4

S. aureus = system: S. aureus; design: method as in doi:10.3390/M1078; details: cited from earlier work
P. aeruginosa = system: P. aeruginosa; design: method as in doi:10.3390/M1078; details: cited from earlier work
E. coli = system: E. coli; design: method as in doi:10.3390/M1078; details: cited from earlier work
[1] = Cytotoxicity assay (MTT) in MDCK cells; format: cell-based, Canine; details: dog, read-out: CC50 (50% cytotoxic concentration)
Procedure: (§5) Initially, maximum non-toxic concentrations were determined for compounds 1–22 to exclude their non-specific antiviral activity. The in vitro cytotoxicity of the tested compounds (CC50) was studied in the normal Madin-Darby Canine Kidney cell line (MDCK) by the MTT ((3-(4,5-dimethylthiazol-2-yl)-2,5-diphenyltetrazolium bromide) test. The highest concentration tested was […]. The cytotoxicity of oseltamivir carboxylate and rimantadine was also evaluated as these have been used as reference drugs in antiviral tests. Compounds at concentration that kills no more than 50% of cells (CC50) were used for further investigation of antiviral activity.
(§6) The MDCK cells were seeded onto 96-well culture plates (10^4 cells per well) and incubated at 36 °C in 5% CO2 until continuous monolayer formation. To assess the toxicity of the compounds, a series of their 3-fold dilutions, at concentrations of 300 to 3.7 μg/mL in Eagle’s Minimal Essential Medium (MEM), were prepared. The dilutions were added to the wells of the plates. The cells were incubated for 72 h at 36 °C in a CO2 incubator under 5% CO2. Further, a microtetrazolium (MTT) assay was performed on the 96-well plates. The cells were washed 2 times with saline (0.9% NaCl), and 100 μL/well of MTT solution [3-(4,5-dimethylthiazol-2-yl)-2,5-diphenyltetrazolium bromide] at a concentration of […] in MEM was added. The plates were incubated for 1 h at 36 °C, the liquid was removed, and dimethylsulfoxide (DMSO) (0.1 mL per well) was added. The optical density (OD) of the cells was measured on a Thermo Multiskan FC spectrophotometer (Thermo Fisher Scientific, Waltham, MA, USA) at a wavelength of 540 nm. Based on the obtained data, the CC50, the concentration of the compound that destroys 50% of the cells in the culture, was calculated for each specimen.

MDCK cells = experiment: Cytotoxicity assay (MTT) in MDCK cells; format: cell-based, Canine; details: 72 h, read-out: CC50 (50% cytotoxic concentration)
Procedure: as §5, §6

[2] = system: influenza virus A/Puerto Rico/8/34 (H1N1); experiment: organism not typed; format: cell-based; details: read-out: IC50 (50% inhibitory concentration)
[3] = Cytotoxic assay (MTT) against BHK-21 cells; format: cell-based; details: hamster, read-out: CC50 (50% cytotoxic concentration)
Procedure: The cytotoxic evaluation of the extracts was carried out against the BHK-21 cells. Under cultural conditions of EMEM with FBS (10%), the assaying cells were grown in 96-well bottom-transparent plates at a density of 6 × 10^4 cells/mL per well. The compounds that had been dissolved in dimethyl sulfoxide (DMSO) with six different concentrations (500, 250, 125, 62.5, 31.25, 15.625 μg/mL) were added into each well; each concentration was used in triplicate. After incubation at 37 °C under 5% CO2 atmosphere for 48 h, MTT (0.5 mg/mL) was added into each well; afterwards, 4 h incubation was carried out. The liquid in the wells was removed, and DMSO ([…]) was added to each well. The optical absorbance was recorded on a microplate reader at λ = 570 nm (Genious Tecan, Grödig, […]). The optical density in the wells was plotted against the logarithm of compound concentration, and 50% cytotoxic concentration (CC50), the compound concentration decreasing the optical density twice comparing to control wells, was calculated using the appropriate software (Table Curve 2Dv4.USA).

DENV-3: SMLC50 = experiment: Plaque reduction neutralization test (PRNT), DENV-3; format: cell-based, Dengue virus; details: DENV-3, BHK-21 cells
Text: as §1, §2, §3, §4

CC1(C)CC[C@]2(C(=O)NCCNCCN)CC[C@]3(C)C(=CCC4[C@@]5(C)CCC(=O)C(C)(C)C5CC[C@]43C)C2C1 (stereo partly shown) [Compound 5]
PRNT50 DENV-4 (concentration that reduces plaque number by 50%) (DENV-4: SLMC318): inactive
IC50 (DENV-4: SLMC318; Dengue virus, DENV4, read-out: PRNT50 DENV-4 (concentration that reduces plaque number by 50%)): 433 ± 31 µM
PRNT50 DENV-2 (concentration that reduces plaque number by 50%) (DENV-2: 00St22A): inactive
IC50 (DENV-2: 00St22A; Dengue virus, DENV2, read-out: PRNT50 DENV-2 (concentration that reduces plaque number by 50%)): 372 ± 15 µM
PRNT50 DENV-1 (concentration that reduces plaque number by 50%) (DENV-1:VN/2017/D7709): inactive
IC50 (DENV-1:VN/2017/D7709; Dengue virus, DENV1, read-out: PRNT50 DENV-1 (concentration that reduces plaque number by 50%)): 220 ± 14 µM
MIC against S. aureus (S. aureus): 12.5 µM (≈ 6.75 µg/mL)
MIC against P. aeruginosa (P. aeruginosa): 50 µM (≈ 27 µg/mL)
MIC against E. coli (E. coli): 25 µM (≈ 13.5 µg/mL)
CC50 at 72 h [1]: 48 µM
CC50 (MDCK cells): 50 ± 4 µM
IC50 ([2]; MDCK, 72 h): 20 to 21 µM
IC50 [2]: > 20 µM
CC50 at 48 h [3]: > 463 µM
PRNT50 DENV-3 (concentration that reduces plaque number by 50%) (DENV-3: SMLC50): inactive
IC50 (DENV-3: SMLC50; Dengue virus, DENV3, read-out: PRNT50 DENV-3 (concentration that reduces plaque number by 50%)): 452 ± 26 µM
